Laboratory results taken from patent US20130280204A1 (priority 2007, published 2013).
Like-named read-outs stand apart in the source and are kept apart here.

Assays:
TKY virus = format: cell-based, influenza A virus H4N2; conditions: t=15 min
[1] = target: viral NA of TKY Wild-type (Influenza A virus (A/turkey/Minnesota/833/1980(H4N2)), UniProt Q20NP0); format: biochemical; conditions: read-out: Ki (nM, based on ZA) Wild-type
[2] = test system: avian strain A/Turkey/MN/80 (TKY); format: cell-based, influenza A virus H4N2
[3] = test system: human influenza A/Wuhan/359/95 (Wuhan); assay: microbe, parasite or virus in culture; format: cell-based, influenza A virus H3N2
[4] = test system: avian influenza A/turkey/MN/833/80 (TKY); assay: microbe, parasite or virus in culture; format: cell-based, influenza A virus H4N2
active site of NA = conditions: read-out: affinity constant for the active site of NA; cited from earlier work
TKY Drug-free p23 (DF23) = format: cell-based, influenza A virus H4N2; conditions: read-out: IC50 (nM, based on ZA) Drug-free p23
TKY Wild-type = format: cell-based, influenza A virus H4N2; conditions: read-out: IC50 (nM, based on ZA) Wild-type
[5] = test system: A/Nanchang/933/95 (Nanchang) virus; design: species or system ferrets; conditions: in vivo
[6] = target: viral NA of TKY Drug-free p23 (DF23) (Influenza A virus (A/turkey/Minnesota/833/1980(H4N2)), UniProt Q20NP0); format: biochemical; conditions: read-out: Ki (nM, based on ZA) Drug-free p23
WSN strain = test system: WSN strain; design: species or system Balb/C mice; conditions: mouse, in vivo
influenza A/WSN/33 (WSN) = assay: microbe, parasite or virus in culture; format: cell-based, influenza A virus H1N1; conditions: read-out: IC50 (nM 1) WSN

Sequence of viral NA of TKY Drug-free p23 (DF23) (Influenza A virus (A/turkey/Minnesota/833/1980(H4N2)), UniProt Q20NP0) (Q20NP0 whole entry, looked up): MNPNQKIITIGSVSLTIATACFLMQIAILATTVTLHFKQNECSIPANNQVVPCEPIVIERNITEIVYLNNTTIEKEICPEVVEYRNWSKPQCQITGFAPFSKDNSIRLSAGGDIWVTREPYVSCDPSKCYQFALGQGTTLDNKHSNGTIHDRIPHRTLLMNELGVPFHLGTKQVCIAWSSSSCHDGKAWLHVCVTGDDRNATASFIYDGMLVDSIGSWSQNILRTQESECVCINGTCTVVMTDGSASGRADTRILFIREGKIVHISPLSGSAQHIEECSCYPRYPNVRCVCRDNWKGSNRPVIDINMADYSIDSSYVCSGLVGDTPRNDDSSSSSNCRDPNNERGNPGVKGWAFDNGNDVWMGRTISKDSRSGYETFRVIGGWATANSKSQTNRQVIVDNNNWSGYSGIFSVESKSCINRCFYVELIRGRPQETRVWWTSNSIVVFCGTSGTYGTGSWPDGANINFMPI
Sequence of viral NA of TKY Wild-type (Influenza A virus (A/turkey/Minnesota/833/1980(H4N2)), UniProt Q20NP0) (Q20NP0 whole entry, looked up): as above

Q: Which “viral particles inside the cells” value (TKY virus) does the source give for `NC12CC3CC(CC(C3)C1)C2` [amantadine] here?
A: Its value is “accumulation of viral particles inside the cells”.

Q: For `CC(=O)N[C@H]1[C@H]([C@H](O)[C@H](O)CO)OC(C(=O)O)=C[C@@H]1N=C(N)N` [compound 1, zanamivir], which Ki [1] is on record?
A: Its Ki is 5.3 ± 0.4 nM.

Q: And the “change of potency (IC50), early and late vs late only” value [2]?
A: The value was “remained the same”.

Q: And the IC50 ([3]; H3N2, read-out: IC50 (nM Sugar) Wuhan (H3N2))?
A: Its IC50 is 20000 nM.

Q: And the IC50 ([4]; H4N2, read-out: IC50 (nM Sugar) Turkey/WT (H4N2))?
A: Its IC50 is 20000 nM.

Q: What about the Kd (active site of NA) of the same molecule?
A: The Kd was 0.0001 to 0.001 µM.

Q: What about the IC50 (TKY Drug-free p23 (DF23)) of the same molecule?
A: Its IC50 is 38 ± 31 nM.

Q: And the IC50 (TKY Wild-type)?
A: The IC50 was 56 ± 8 nM.

Q: What about the “reduction in nasal wash viral titer compared to PBS controls, day 4 p.i.” value [5] of the same molecule?
A: The value was “did not”.

Q: What about the “reduction in nasal wash viral titer compared to PBS controls, day 6 p.i.” value [5] of the same molecule?
A: The value was “did not”.

Q: What about the “reduction in nasal wash viral titer compared to PBS-treated group, day 2 p.i.” value [5] of the same molecule?
A: The value was 38 fold.

Q: What about the Ki [6] of the same molecule?
A: Its Ki is 8.8 ± 5.6 nM.

Q: And the “drop of viral titers in lung homogenates vs untreated mice” value (WSN strain)?
A: Its value is 20 fold.

Q: Which IC50 ([3]; read-out: IC50 (nM 1) Wuhan) does the source give for `CC(=O)NC1C(NC(=N)N)C=C(C(=O)O)OC1C(OC(=O)NCCOCCN)C(O)CO` (stereo not shown) [compound 3, 3-Acetamido-2-(1-(((2-(2-aminoethoxy)ethyl)carbamoyl)oxy)-2,3-dihydroxypropyl)-4-guanidino-3,4-dihydro-2H-pyran-6-carboxylic acid] here?
A: The IC50 was 1.3e+06 nM.

Q: What about the IC50 (influenza A/WSN/33 (WSN)) of the same molecule?
A: The IC50 was 57000 nM.

Q: And the IC50 ([4]; read-out: IC50 (nM 1) TKY)?
A: Its IC50 is 1.4e+06 nM.

Q: Which results are given for `CC(=O)NC1C(NC(=N)N)C=C(C(=O)O)OC1C(OC(=O)Nc1ccc(CN)cc1)C(O)CO` (stereo not shown) [compound 4, 3-Acetamido-2-(1-(((4-(aminomethyl)phenyl)carbamoyl)oxy)-2,3-dihydroxypropyl)-4-guanidino-3,4-dihydro-2H-pyran-6-carboxylic acid]?
A: IC50 ([3]; read-out: IC50 (nM 1) Wuhan): 840000 nM; IC50 (influenza A/WSN/33 (WSN)): 76000 nM; IC50 ([4]; read-out: IC50 (nM 1) TKY): 2.3e+06 nM
